This is an account of results in patent US20250353891A1 (MEDIMMUNE LIMITED, priority 2022, published 2025).

Like-named read-outs stand apart in the source and are kept apart here. Starred links: 1 amine or outer side, 2 acyl side, 3 side chain; linkers in the order of their positions; H or OH if unused. Non-standard residues stand in square brackets, D forms with d. Residues, ends and D or L forms follow the SMILES beside them. Groups on a side chain read outwards from the residue. *: point of attachment. C20 diacid = O=C(O)CCCCCCCCCCCCCCCCCCC(=O)*; C18 diacid = O=C(O)CCCCCCCCCCCCCCCCC(=O)*; γGlu = O=C(O)[C@H](CCC(=O)[*:2])N[*:1]; αMeF = C[C@](N)(Cc1ccccc1)C(=O)O; AEEA = NCCOCCOCC(=O)O; Aib = CC(C)(N)C(=O)O

The target in test [1] is human GLP-1 receptor (hGLP-1R) (Homo sapiens, UniProt P43220). Nature of the test: cAMP production (HTRF) in CHO cells expressing hGLP-1R. To be noted: for EC50: cAMP in CHO hGLP-1R cells, geometric mean, read-out: hGLP-1R EC50; for % Relative Potency Ratio: % GLP-1R activity relative to GLP-1 / % GlucR activity relative to glucagon. It counts as cell-based. Also on record: expressed in transfected cells. In a few lines: (§1)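 Read-out: HTRF cAMP (anti-cAMP cryptate donor, cAMP-d2 acceptor in conjugate/lysis buffer), converted to % Delta F and fitted by 4-parameter logistic for EC50. Cell densities were 1×10^5 cells/mL (hGLP-1R) or 2×10^5 cells/mL (hGCGR). Stimulation lasted 30 min at room temperature.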
Sequence of human GLP-1 receptor (hGLP-1R) (P43220 24-463): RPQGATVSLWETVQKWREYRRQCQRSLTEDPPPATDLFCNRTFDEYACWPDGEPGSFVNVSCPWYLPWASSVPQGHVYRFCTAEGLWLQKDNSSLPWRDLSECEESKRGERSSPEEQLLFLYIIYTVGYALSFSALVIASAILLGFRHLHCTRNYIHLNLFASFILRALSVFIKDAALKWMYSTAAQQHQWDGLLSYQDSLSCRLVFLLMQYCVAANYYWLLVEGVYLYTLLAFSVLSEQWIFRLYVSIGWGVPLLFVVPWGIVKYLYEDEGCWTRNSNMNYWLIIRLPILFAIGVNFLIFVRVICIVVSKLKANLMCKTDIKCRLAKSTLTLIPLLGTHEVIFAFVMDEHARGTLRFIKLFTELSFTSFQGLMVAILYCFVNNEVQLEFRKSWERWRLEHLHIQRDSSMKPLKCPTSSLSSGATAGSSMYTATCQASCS
In general terms: Cyclic AMP is a second messenger, typically raised through Gs and lowered through Gi signalling.

Test [2] concerns the target human glucagon receptor (hGCGR) (Homo sapiens, UniProt P47871). The test is described as follows: cAMP production (HTRF) in CHO cells expressing hGCGR. Also on record: expressed in transfected cells. Particulars: cAMP in CHO hGCGR cells, geometric mean, read-out: hGluc-R EC50. The format is cell-based. In a few lines: as §1
Where [3] appears, read: Table 6, peptides modified at position 17.
Setting [4] is: Table 7, peptides modified at position 20.

Sequence of human glucagon receptor (hGCGR) (P47871 26-477): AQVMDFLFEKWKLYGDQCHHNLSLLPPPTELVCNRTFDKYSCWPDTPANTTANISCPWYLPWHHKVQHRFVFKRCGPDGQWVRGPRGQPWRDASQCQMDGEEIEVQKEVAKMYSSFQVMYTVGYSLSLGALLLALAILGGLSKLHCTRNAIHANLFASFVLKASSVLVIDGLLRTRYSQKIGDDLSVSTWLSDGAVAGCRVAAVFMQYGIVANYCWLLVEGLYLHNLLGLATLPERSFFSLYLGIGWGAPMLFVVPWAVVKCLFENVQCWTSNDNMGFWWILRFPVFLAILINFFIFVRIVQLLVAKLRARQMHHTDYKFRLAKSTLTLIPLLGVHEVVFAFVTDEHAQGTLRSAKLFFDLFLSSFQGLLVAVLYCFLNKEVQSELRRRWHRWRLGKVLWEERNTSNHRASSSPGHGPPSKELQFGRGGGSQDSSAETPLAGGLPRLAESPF

A word on the EC50: it is the concentration giving half of the maximal effect. As for `CC(C)C[C@H](NC(=O)[C@H](Cc1c[nH]c2ccccc12)NC(=O)[C@H](C)NC(=O)[C@@H](NC(=O)[C@H](Cc1ccccc1)NC(=O)[C@H](CC(=O)O)NC(=O)[C@H](CCCNC(=N)N)NC(=O)[C@H](C)NC(=O)[C@H](CCCNC(=N)N)NC(=O)[C@H](CCCCNC(=O)COCCOCCNC(=O)COCCOCCNC(=O)CC[C@H](NC(=O)CCCCCCCCCCCCCCCCC(=O)O)C(=O)O)NC(=O)[C@@H](NC(=O)[C@H](CC(=O)O)NC(=O)[C@H](CC(C)C)NC(=O)[C@](C)(Cc1ccccc1)NC(=O)[C@H](CCCCN)NC(=O)[C@H](CO)NC(=O)[C@@H](NC(=O)[C@H](CC(=O)O)NC(=O)[C@H](CO)NC(=O)[C@@H](NC(=O)[C@H](Cc1ccccc1)NC(=O)[C@@H](NC(=O)CNC(=O)[C@H](CCC(N)=O)NC(=O)C(C)(C)NC(=O)[C@@H](N)Cc1c[nH]cn1)[C@@H](C)O)[C@@H](C)O)C(C)C)[C@@H](C)O)C(C)C)C(=O)N[C@@H](CC(C)C)C(=O)N[C@@H](CCC(=O)O)C(=O)NC(C)(C)C(=O)NCC(=O)O` [Peptide 200] (H-H[Aib]QGTFTSDVSK[αMeF]LDTK([AEEA-AEEA-γGlu-C18 diacid])RARDFVAWLLE[Aib]G-OH), the EC50 turned out to be 22.7 pM in test [1] (setting [3]) and 97.7 pM in test [2] (setting [3]). Further, in test [1] (Table 6), the “% Relative Potency Ratio” value was 8.5.

Turning to `CC(C)C[C@H](NC(=O)[C@H](Cc1c[nH]c2ccccc12)NC(=O)[C@H](CCCNC(=N)N)NC(=O)[C@@H](NC(=O)[C@H](Cc1ccccc1)NC(=O)[C@H](CC(=O)O)NC(=O)[C@H](CCCNC(=N)N)NC(=O)[C@H](C)NC(=O)[C@H](CCCNC(=N)N)NC(=O)[C@H](CCCCNC(=O)COCCOCCNC(=O)COCCOCCNC(=O)CC[C@H](NC(=O)CCCCCCCCCCCCCCCCC(=O)O)C(=O)O)NC(=O)[C@@H](NC(=O)[C@H](CC(=O)O)NC(=O)[C@H](CC(C)C)NC(=O)[C@](C)(Cc1ccccc1)NC(=O)[C@H](CCCCN)NC(=O)[C@H](CO)NC(=O)[C@@H](NC(=O)[C@H](CC(=O)O)NC(=O)[C@H](CO)NC(=O)[C@@H](NC(=O)[C@H](Cc1ccccc1)NC(=O)[C@@H](NC(=O)CNC(=O)[C@H](CCC(N)=O)NC(=O)C(C)(C)NC(=O)[C@@H](N)Cc1c[nH]cn1)[C@@H](C)O)[C@@H](C)O)C(C)C)[C@@H](C)O)C(C)C)C(=O)N[C@@H](CC(C)C)C(=O)NC(C)(C)C(=O)N[C@H](C(=O)N[C@@H](CCC(=O)O)C(=O)O)[C@@H](C)O` [Peptide 491] (H-H[Aib]QGTFTSDVSK[αMeF]LDTK([AEEA-AEEA-γGlu-C18 diacid])RARDFVRWLL[Aib]TE-OH; N-terminus assumed), the values for the EC50 in test [1] (setting [3]) and in test [2] (setting [3]) were 73.6 pM and 232 pM, respectively. For the same molecule, the “% Relative Potency Ratio” value in test [1] (Table 6) was found to be 6.2.

Regarding `CC(C)C[C@H](NC(=O)[C@H](Cc1c[nH]c2ccccc12)NC(=O)[C@H](CCCNC(=N)N)NC(=O)[C@@H](NC(=O)[C@H](Cc1ccccc1)NC(=O)[C@H](CC(=O)O)NC(=O)[C@H](CCC(N)=O)NC(=O)[C@H](C)NC(=O)[C@H](CCCNC(=N)N)NC(=O)[C@H](CCCCNC(=O)COCCOCCNC(=O)COCCOCCNC(=O)CC[C@H](NC(=O)CCCCCCCCCCCCCCCCC(=O)O)C(=O)O)NC(=O)[C@H](CCC(=O)O)NC(=O)[C@H](CC(=O)O)NC(=O)[C@H](CC(C)C)NC(=O)[C@](C)(Cc1ccccc1)NC(=O)[C@H](CCCCN)NC(=O)[C@H](CO)NC(=O)[C@@H](NC(=O)[C@H](CC(=O)O)NC(=O)[C@H](CO)NC(=O)[C@@H](NC(=O)[C@H](Cc1ccccc1)NC(=O)[C@@H](NC(=O)CNC(=O)[C@H](CCC(N)=O)NC(=O)C(C)(C)NC(=O)[C@@H](N)Cc1c[nH]cn1)[C@@H](C)O)[C@@H](C)O)C(C)C)C(C)C)C(=O)N[C@@H](CC(C)C)C(=O)NC(C)(C)C(=O)N[C@H](C(=O)N[C@@H](CCC(=O)O)C(=O)O)[C@@H](C)O` [Peptide 170] (H-H[Aib]QGTFTSDVSK[αMeF]LDEK([AEEA-AEEA-γGlu-C18 diacid])RAQDFVRWLL[Aib]TE-OH; N-terminus assumed), the concentration for a half-maximal effect (EC50) in test [1] (setting [3]) was 148 pM; in test [2] (setting [3]) it was 836 pM. Besides, in test [1] (Table 6), the “% Relative Potency Ratio” value is on record as 11.2.

On to `CC[C@H](C)[C@H](NC(=O)C(C)(C)NC(=O)[C@H](CCC(N)=O)NC(=O)[C@@H](NC(=O)[C@](C)(Cc1ccccc1)NC(=O)[C@H](CC(=O)O)NC(=O)[C@H](CCCNC(=N)N)NC(=O)[C@H](C)NC(=O)[C@H](C)NC(=O)[C@H](CCCCNC(=O)COCCOCCNC(=O)COCCOCCNC(=O)CC[C@H](NC(=O)CC[C@H](NC(=O)CCCCCCCCCCCCCCCCCCC(=O)O)C(=O)O)C(=O)O)NC(=O)[C@H](CO)NC(=O)[C@H](CC(=O)O)NC(=O)[C@H](CC(C)C)NC(=O)[C@](C)(Cc1ccccc1)NC(=O)[C@H](CCCCN)NC(=O)[C@H](CO)NC(=O)[C@@H](NC(=O)[C@H](CC(=O)O)NC(=O)[C@H](CO)NC(=O)[C@@H](NC(=O)[C@](C)(Cc1ccccc1)NC(=O)[C@H](CO)NC(=O)CNC(=O)[C@H](Cc1c[nH]cn1)NC(=O)C(C)(C)NC(=O)[C@@H](N)Cc1c[nH]cn1)[C@@H](C)O)C(C)C)C(C)C)C(=O)N[C@@H](C)C(=O)N[C@@H](CC(N)=O)C(=O)N[C@H](C(N)=O)[C@@H](C)O` [Peptide 14] (H-H[Aib]HGS[αMeF]TSDVSK[αMeF]LDSK([AEEA-AEEA-γGlu-γGlu-C20 diacid])AARD[αMeF]VQ[Aib]IANT-NH2; N-terminus assumed), for which the results for the EC50 in test [1] (setting [3]) and in test [2] (setting [3]) were 93.8 pM and 462 pM, respectively. For the same molecule, in test [1] (Table 6), the “% Relative Potency Ratio” value amounted to 9.7.

`CC[C@H](C)[C@H](NC(=O)[C@H](Cc1c[nH]c2ccccc12)NC(=O)[C@H](CCC(N)=O)NC(=O)[C@@H](NC(=O)[C@H](Cc1ccccc1)NC(=O)[C@H](CC(=O)O)NC(=O)[C@H](CCCCNC(=O)COCCOCCNC(=O)COCCOCCNC(=O)CC[C@H](NC(=O)CC[C@H](NC(=O)CCCCCCCCCCCCCCCCCCC(=O)O)C(=O)O)C(=O)O)NC(=O)[C@H](C)NC(=O)[C@H](C)NC(=O)[C@H](CCCNC(=N)N)NC(=O)[C@H](CO)NC(=O)[C@H](CC(=O)O)NC(=O)[C@H](CC(C)C)NC(=O)[C@](C)(Cc1ccccc1)NC(=O)[C@H](CCCCN)NC(=O)[C@H](CO)NC(=O)[C@@H](NC(=O)[C@H](CC(=O)O)NC(=O)[C@H](CO)NC(=O)[C@@H](NC(=O)[C@](C)(Cc1ccccc1)NC(=O)[C@H](CO)NC(=O)CNC(=O)[C@H](Cc1c[nH]cn1)NC(=O)C(C)(C)NC(=O)[C@@H](N)Cc1c[nH]cn1)[C@@H](C)O)C(C)C)C(C)C)C(=O)N[C@@H](C)C(=O)N[C@@H](CC(N)=O)C(=O)N[C@H](C(N)=O)[C@@H](C)O` [Peptide 211] (H-H[Aib]HGS[αMeF]TSDVSK[αMeF]LDSRAAK([AEEA-AEEA-γGlu-γGlu-C20 diacid])DFVQWIANT-NH2): the EC50 worked out at 167 pM in test [1] (setting [4]) and 60.9 pM in test [2] (setting [4]). For the same molecule, in test [1] (Table 7), the “% Relative Potency Ratio” value came out at 0.7.

Take `CC(C)C[C@H](NC(=O)[C@H](Cc1c[nH]c2ccccc12)NC(=O)[C@H](CCCNC(=N)N)NC(=O)[C@@H](NC(=O)[C@H](Cc1ccccc1)NC(=O)[C@H](CC(=O)O)NC(=O)[C@H](CCC(N)=O)NC(=O)[C@H](C)NC(=O)[C@H](CCCNC(=N)N)NC(=O)[C@H](CCCCNC(=O)COCCOCCNC(=O)COCCOCCNC(=O)CC[C@H](NC(=O)CC[C@H](NC(=O)CCCCCCCCCCCCCCCCCCC(=O)O)C(=O)O)C(=O)O)NC(=O)[C@@H](NC(=O)[C@H](CC(=O)O)NC(=O)[C@H](CC(C)C)NC(=O)[C@](C)(Cc1ccccc1)NC(=O)[C@H](CCCCN)NC(=O)[C@H](CO)NC(=O)[C@@H](NC(=O)[C@H](CC(=O)O)NC(=O)[C@H](CO)NC(=O)[C@@H](NC(=O)[C@H](Cc1ccccc1)NC(=O)[C@@H](NC(=O)CNC(=O)[C@H](CCC(N)=O)NC(=O)C(C)(C)NC(=O)[C@@H](N)Cc1c[nH]cn1)[C@@H](C)O)[C@@H](C)O)C(C)C)[C@@H](C)O)C(C)C)C(=O)N[C@@H](CCC(=O)O)C(=O)N[C@@H](C)C(=O)NC(C)(C)C(=O)NCC(=O)O` [Peptide 408] (H-H[Aib]QGTFTSDVSK[αMeF]LDTK([AEEA-AEEA-γGlu-γGlu-C20 diacid])RAQDFVRWLEA[Aib]G-OH; N-terminus assumed): the EC50 is 370 pM in test [1] (setting [3]) and 828 pM in test [2] (setting [3]). Also, in test [1] (Table 6), the “% Relative Potency Ratio” value came to 4.4.

Consider `CC(C)C[C@H](NC(=O)[C@H](Cc1c[nH]c2ccccc12)NC(=O)[C@H](CCC(N)=O)NC(=O)[C@@H](NC(=O)[C@H](Cc1ccccc1)NC(=O)[C@H](CC(=O)O)NC(=O)[C@H](CCC(N)=O)NC(=O)[C@H](C)NC(=O)[C@H](CCCNC(=N)N)NC(=O)[C@H](CCCCNC(=O)COCCOCCNC(=O)COCCOCCNC(=O)CC[C@H](NC(=O)CCCCCCCCCCCCCCCCC(=O)O)C(=O)O)NC(=O)[C@@H](NC(=O)[C@H](CC(=O)O)NC(=O)[C@H](CC(C)C)NC(=O)[C@](C)(Cc1ccccc1)NC(=O)[C@H](CCCCN)NC(=O)[C@H](CO)NC(=O)[C@@H](NC(=O)[C@H](CC(=O)O)NC(=O)[C@H](CO)NC(=O)[C@@H](NC(=O)[C@H](Cc1ccccc1)NC(=O)[C@@H](NC(=O)CNC(=O)[C@H](CCC(N)=O)NC(=O)C(C)(C)NC(=O)[C@@H](N)Cc1c[nH]cn1)[C@@H](C)O)[C@@H](C)O)C(C)C)[C@@H](C)O)C(C)C)C(=O)N[C@@H](CC(C)C)C(=O)N[C@@H](CCCNC(=N)N)C(=O)NC(C)(C)C(=O)N[C@@H](C)C(=O)O` [Peptide 499] (H-H[Aib]QGTFTSDVSK[αMeF]LDTK([AEEA-AEEA-γGlu-C18 diacid])RAQDFVQWLLR[Aib]A-OH; N-terminus assumed), for which the 50% effective concentration (EC50) stood at 40.6 pM in test [1] (setting [3]) and 78.8 pM in test [2] (setting [3]). Also, the “% Relative Potency Ratio” value in test [1] (Table 6) was determined as 3.8.
